Assays:
Test in all cases: relative viability (nuclei count vs DMSO), 5 days (fraction); higher = more cells survive
Palbociclib + OSI-027 = compound: CC(=O)c1c(C)c2cnc(Nc3ccc(N4CCNCC4)cn3)nc2n(C2CCCC2)c1=O [Palbociclib] + COc1cccc2cc(-c3nc([C@H]4CC[C@H](C(=O)O)CC4)n4ncnc(N)c34)[nH]c12 [OSI-027] (partner 0.5 µM)
Summary of the method: (§1)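 One day after seeding in 1536-well plates, lung cancer cell lines were dosed by pin tool. Dosing was either single-drug or a fixed anchor-drug dose plus five library-drug doses (not always all listed) in √10 steps. After 5 days, nuclei were stained in one fix-and-stain step and counted on 4× images, and relative viability is the nuclei count of treated wells over that of vehicle wells, given as the median of duplicate plates.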

Palbociclib + Linsitinib = compound: CC(=O)c1c(C)c2cnc(Nc3ccc(N4CCNCC4)cn3)nc2n(C2CCCC2)c1=O [Palbociclib] + C[C@]1(O)C[C@@H](c2nc(-c3ccc4ccc(-c5ccccc5)nc4c3)c3c(N)nccn32)C1 [Linsitinib] (partner 1 µM)
Summary of the method: as §1

Palbociclib + Foretinib = compound: CC(=O)c1c(C)c2cnc(Nc3ccc(N4CCNCC4)cn3)nc2n(C2CCCC2)c1=O [Palbociclib] + COc1cc2c(Oc3ccc(NC(=O)C4(C(=O)Nc5ccc(F)cc5)CC4)cc3F)ccnc2cc1OCCCN1CCOCC1 [Foretinib] (partner 0.25 µM)
Summary of the method: as §1

Palbociclib + Alpelisib = compound: CC(=O)c1c(C)c2cnc(Nc3ccc(N4CCNCC4)cn3)nc2n(C2CCCC2)c1=O [Palbociclib] + Cc1nc(NC(=O)N2CCC[C@H]2C(N)=O)sc1-c1ccnc(C(C)(C)C(F)(F)F)c1 [Alpelisib] (partner 2 µM)
Summary of the method: as §1

Cell Line	relative viability (Palbociclib + OSI-027; first compound 0.01 µM)	relative viability (Palbociclib + OSI-027; first compound 0.03162 µM)	relative viability (Palbociclib + OSI-027; first compound 0.1 µM)	relative viability (Palbociclib + OSI-027; first compound 0.3162 µM)	relative viability (Palbociclib + OSI-027; first compound 1 µM)	relative viability (Palbociclib + Linsitinib; first compound 0.01 µM)	relative viability (Palbociclib + Linsitinib; first compound 0.03162 µM)	relative viability (Palbociclib + Linsitinib; first compound 0.1 µM)	relative viability (Palbociclib + Linsitinib; first compound 0.3162 µM)	relative viability (Palbociclib + Linsitinib; first compound 1 µM)	relative viability (Palbociclib + Foretinib; first compound 0.01 µM)	relative viability (Palbociclib + Foretinib; first compound 0.03162 µM)	relative viability (Palbociclib + Foretinib; first compound 0.1 µM)	relative viability (Palbociclib + Foretinib; first compound 0.3162 µM)	relative viability (Palbociclib + Foretinib; first compound 1 µM)	relative viability (Palbociclib + Alpelisib; first compound 0.01 µM)	relative viability (Palbociclib + Alpelisib; first compound 0.03162 µM)	relative viability (Palbociclib + Alpelisib; first compound 0.1 µM)	relative viability (Palbociclib + Alpelisib; first compound 0.3162 µM)	relative viability (Palbociclib + Alpelisib; first compound 1 µM)
NCI-H2085	0.658	0.55	0.547	0.574	0.369	1.01	0.785	0.77	0.662	0.571	1.03	0.875	0.744	0.599	0.534	1.03	0.891	0.923	0.84	0.616
NCI-H647	0.788	0.496	0.652	0.636	0.362	1.2	1.01	0.89	0.941	0.712	1.21	1.17	1.13	1.07	0.964	1.33	0.986	0.979	1.02	0.532
NCI-H1944	0.461	0.336	0.335	0.325	0.213	1.15	0.993	1.06	1.08	0.836	0.915	0.807	0.768	0.756	0.577	0.859	0.723	0.648	0.758	0.525
LC-2-ad	0.746		0.604	0.625	0.474	0.884		0.735	0.611	0.395	0.909		0.687	0.687	0.481	0.876		0.701	0.641	0.463
HCC-827	0.809	0.52	0.707	0.563	0.479	0.945	0.879	0.88	0.885	0.71	1.03	0.951	0.999	0.977	0.734	1.04	0.927	0.913	0.819	0.652
HCC-15	0.677		0.549	0.54	0.426	0.966		0.832	0.755	0.726	1		0.902	0.892	0.716	0.878		0.793	0.719	0.704
NCI-H1793	0.262		0.238	0.223	0.186	0.722	0.681	0.647	0.583	0.518	0.689		0.713	0.617	0.355	0.749	0.73	0.687	0.487	0.547
NCI-H1734	0.684	0.42	0.466	0.413	0.329	0.918	0.765	0.789	0.641	0.564	0.831	0.683	0.608	0.686	0.503	0.637	0.588	0.539	0.537	0.374
NCI-H2347	0.467		0.402	0.379	0.308	1.04	0.868	0.597	0.723	0.595	0.917		0.844		0.546	1.15	0.979	0.642	0.789	0.597

Reference: the supplement of paper PMC10307832
